Test results reported in PubChem BioAssay AID1963836 (Molecular Pharmacology Branch, DTP, NCI, 2024).

System: 857933-349-R-J2-PDC complex spheroid viability
Assay: Anticancer human tumor 857933-349-R-J2-PDC patient-derived colon adenocarcinoma cell line growth inhibition [POLQ]
Conditions: for IC50: curve of first compound; for viability, T/C: stronger effect = lower value
Method in brief: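 Complex spheroid viability model combining PDC tumour cells with endothelial (HUVEC) and MSC stromal cells. Novobiocin, ART-558 or RP6685 were tested singly and in combination with standard and investigational anticancer drugs. Each was titrated in half-log steps from near clinical Cmax, or from 10 microM where Cmax was unknown.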

[1] = second compound 0.0316 µM, first compound 0.00316 µM
[2] = second compound 0.0316 µM, first compound 0.01 µM
[3] = second compound 0.0316 µM, first compound 0.0316 µM
[4] = second compound 0.0316 µM, first compound 0.1 µM
[5] = second compound 0.1 µM, first compound 0.00316 µM
[6] = second compound 0.1 µM, first compound 0.01 µM
[7] = second compound 0.1 µM, first compound 0.0316 µM
[8] = second compound 0.1 µM, first compound 0.1 µM
[9] = second compound 0.316 µM, first compound 0.00316 µM
[10] = second compound 0.316 µM, first compound 0.01 µM
[11] = second compound 0.316 µM, first compound 0.0316 µM
[12] = second compound 0.316 µM, first compound 0.1 µM
[13] = second compound 1 µM, first compound 0.00316 µM
[14] = second compound 1 µM, first compound 0.01 µM
[15] = second compound 1 µM, first compound 0.0316 µM
[16] = second compound 1 µM, first compound 0.1 µM
[17] = second compound 3.16 µM, first compound 0.00316 µM
[18] = second compound 3.16 µM, first compound 0.01 µM
[19] = second compound 3.16 µM, first compound 0.0316 µM
[20] = second compound 3.16 µM, first compound 0.1 µM
[21] = second compound 10 µM, first compound 0.00316 µM
[22] = second compound 10 µM, first compound 0.01 µM
[23] = second compound 10 µM, first compound 0.0316 µM
[24] = second compound 10 µM, first compound 0.1 µM
[25] = second compound 0.0316 µM, first compound 0.316 µM
[26] = second compound 0.0316 µM, first compound 1 µM
[27] = second compound 0.1 µM, first compound 0.316 µM
[28] = second compound 0.1 µM, first compound 1 µM
[29] = second compound 0.316 µM, first compound 0.316 µM
[30] = second compound 0.316 µM, first compound 1 µM
[31] = second compound 1 µM, first compound 0.316 µM
[32] = second compound 1 µM, first compound 1 µM
[33] = second compound 3.16 µM, first compound 0.316 µM
[34] = second compound 3.16 µM, first compound 1 µM
[35] = second compound 10 µM, first compound 0.316 µM
[36] = second compound 10 µM, first compound 1 µM
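Further: spheroids exposed to compounds for seven days before readout.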

Structure (SMILES): CC[C@@]1(O)C(=O)OCc2c1cc1n(c2=O)Cc2cc3c(CN(C)C)c(O)ccc3nc2-1 + COC1C(OC(N)=O)C(O)C(Oc2ccc3c(O)c(NC(=O)c4ccc(O)c(CC=C(C)C)c4)c(=O)oc3c2C)OC1(C)C
- IC50 (second compound 0.0316 µM): > 0.1 µM
- IC50 (second compound 0.1 µM): 0.0807 µM
- IC50 (second compound 0.316 µM): > 0.1 µM
- IC50 (second compound 1 µM): > 0.1 µM
- IC50 (second compound 3.16 µM): > 0.1 µM
- IC50 (second compound 10 µM): > 0.1 µM
- viability, T/C (second compound 0.0316 µM, first compound 0.000316 µM): 117%
- viability, T/C (second compound 0.0316 µM, first compound 0.001 µM): 107%
- viability, T/C [1]: 97.6%
- viability, T/C [2]: 84.8%
- viability, T/C [3]: 83%
- viability, T/C [4]: 50.7%
- viability, T/C (second compound 0.1 µM, first compound 0.000316 µM): 105%
- viability, T/C (second compound 0.1 µM, first compound 0.001 µM): 93.3%
- viability, T/C [5]: 88.5%
- viability, T/C [6]: 80%
- viability, T/C [7]: 71%
- viability, T/C [8]: 44.2%
- viability, T/C (second compound 0.316 µM, first compound 0.000316 µM): 120%
- viability, T/C (second compound 0.316 µM, first compound 0.001 µM): 86%
- viability, T/C [9]: 94.4%
- viability, T/C [10]: 76.1%
- viability, T/C [11]: 88.5%
- viability, T/C [12]: 50.4%
- viability, T/C (second compound 1 µM, first compound 0.000316 µM): 138%
- viability, T/C (second compound 1 µM, first compound 0.001 µM): 83.5%
- viability, T/C [13]: 86%
- viability, T/C [14]: 72%
- viability, T/C [15]: 87.1%
- viability, T/C [16]: 49.7%
- viability, T/C (second compound 3.16 µM, first compound 0.000316 µM): 128%
- viability, T/C (second compound 3.16 µM, first compound 0.001 µM): 102%
- viability, T/C [17]: 79.4%
- viability, T/C [18]: 90.7%
- viability, T/C [19]: 65.9%
- viability, T/C [20]: 44.3%
- viability, T/C (second compound 10 µM, first compound 0.000316 µM): 136%
- viability, T/C (second compound 10 µM, first compound 0.001 µM): 123%
- viability, T/C [21]: 69.3%
- viability, T/C [22]: 96.3%
- viability, T/C [23]: 81.6%
- viability, T/C [24]: 45.4%

Structure (SMILES): O=c1[nH]cc(F)c(=O)[nH]1 + COC1C(OC(N)=O)C(O)C(Oc2ccc3c(O)c(NC(=O)c4ccc(O)c(CC=C(C)C)c4)c(=O)oc3c2C)OC1(C)C
- IC50 (second compound 0.0316 µM): 1.96 µM
- IC50 (second compound 0.1 µM): 1.64 µM
- IC50 (second compound 0.316 µM): 2.27 µM
- IC50 (second compound 1 µM): 2.22 µM
- IC50 (second compound 3.16 µM): 2.76 µM
- IC50 (second compound 10 µM): 2.56 µM
- viability, T/C [3]: 81.7%
- viability, T/C [4]: 110%
- viability, T/C [25]: 125%
- viability, T/C [26]: 71.1%
- viability, T/C (second compound 0.0316 µM, first compound 3.16 µM): 45.5%
- viability, T/C (second compound 0.0316 µM, first compound 10 µM): 24.6%
- viability, T/C [7]: 87.3%
- viability, T/C [8]: 91.5%
- viability, T/C [27]: 92.2%
- viability, T/C [28]: 58.1%
- viability, T/C (second compound 0.1 µM, first compound 3.16 µM): 44.7%
- viability, T/C (second compound 0.1 µM, first compound 10 µM): 30.3%
- viability, T/C [11]: 99.3%
- viability, T/C [12]: 87.2%
- viability, T/C [29]: 88.8%
- viability, T/C [30]: 70.9%
- viability, T/C (second compound 0.316 µM, first compound 3.16 µM): 41%
- viability, T/C (second compound 0.316 µM, first compound 10 µM): 28.4%
- viability, T/C [15]: 109%
- viability, T/C [16]: 92.1%
- viability, T/C [31]: 97.3%
- viability, T/C [32]: 63.8%
- viability, T/C (second compound 1 µM, first compound 3.16 µM): 44.5%
- viability, T/C (second compound 1 µM, first compound 10 µM): 30%
- viability, T/C [19]: 79.7%
- viability, T/C [20]: 86.3%
- viability, T/C [33]: 82.3%
- viability, T/C [34]: 85.3%
- viability, T/C (second compound 3.16 µM, first compound 3.16 µM): 45.5%
- viability, T/C (second compound 3.16 µM, first compound 10 µM): 29.3%
- viability, T/C [23]: 108%
- viability, T/C [24]: 74.4%
- viability, T/C [35]: 76.3%
- viability, T/C [36]: 76.2%
- viability, T/C (second compound 10 µM, first compound 3.16 µM): 42.2%
- viability, T/C (second compound 10 µM, first compound 10 µM): 29.3%

Structure (SMILES): CCc1c2c(nc3ccc(O)cc13)-c1cc3c(c(=O)n1C2)COC(=O)[C@]3(O)CC + COC1C(OC(N)=O)C(O)C(Oc2ccc3c(O)c(NC(=O)c4ccc(O)c(CC=C(C)C)c4)c(=O)oc3c2C)OC1(C)C
- IC50 (second compound 0.0316 µM): 0.0199 µM
- IC50 (second compound 0.1 µM): 0.0194 µM
- IC50 (second compound 0.316 µM): 0.0175 µM
- IC50 (second compound 1 µM): 0.0125 µM
- IC50 (second compound 3.16 µM): 0.0158 µM
- IC50 (second compound 10 µM): 0.00942 µM
- viability, T/C [1]: 84.5%
- viability, T/C [2]: 71.7%
- viability, T/C [3]: 32.1%
- viability, T/C [4]: 25.3%
- viability, T/C [25]: 17.5%
- viability, T/C [26]: 5.52%
- viability, T/C [5]: 88.3%
- viability, T/C [6]: 76.1%
- viability, T/C [7]: 29.7%
- viability, T/C [8]: 20.2%
- viability, T/C [27]: 14.1%
- viability, T/C [28]: 4.89%
- viability, T/C [9]: 92.3%
- viability, T/C [10]: 71.7%
- viability, T/C [11]: 26.3%
- viability, T/C [12]: 17.3%
- viability, T/C [29]: 15.2%
- viability, T/C [30]: 5.5%
- viability, T/C [13]: 89%
- viability, T/C [14]: 56.6%
- viability, T/C [15]: 22.9%
- viability, T/C [16]: 16.7%
- viability, T/C [31]: 16.2%
- viability, T/C [32]: 5.68%
- viability, T/C [17]: 84.8%
- viability, T/C [18]: 62.8%
- viability, T/C [19]: 29.8%
- viability, T/C [20]: 22.4%
- viability, T/C [33]: 12.5%
- viability, T/C [34]: 6.77%
- viability, T/C [21]: 80.6%
- viability, T/C [22]: 42.7%
- viability, T/C [23]: 35%
- viability, T/C [24]: 16.2%
- viability, T/C [35]: 12.2%
- viability, T/C [36]: 4.37%
